The target in the test is RBP (Homo sapiens, UniProt P02753). In words: Competition binding assay, RBP-retinol/HPR, fluorescence. The conditions noted are these: physiological temperature (37 C). From the text:
Based upon these findings, we sought to further explore the mechanism(s) of retinol reduction during HPR treatment. A tenable hypothesis is that HPR may displace retinol by competing at the retinol binding site on RBP. […] Therefore, one can measure displacement of retinol from the RBP holoprotein by observing decreases in both protein (340 nm) and retinol (470 nm) fluorescence. We performed a competition binding assay using RBP-retinol/HPR concentrations which were similar to those determined from the 14 day trial at 20 mg/kg HPR described above. […] In the control assays, decreases in retinol fluorescence were associated with concomitant increases in protein fluorescence, see FIG. 3a. This effect was determined to be due to temperature effects as the dissociation constant of RBP-retinol increases (decreased affinity) with increased time at 37 C.

SMILES strings stand for the structures.

For `CC1=C(/C=C/C(C)=C/C=C/C(C)=C/C(=O)Nc2ccc(O)cc2)C(C)(C)CCC1` [HPR, N-(4-hydroxyphenyl)retinamide], the “displacement of retinol from RBP-retinol holoprotein” value is on record as “efficiently displaces retinol”.

These data come from patent publication US8410168B2, “Methods and compositions for treating ophthalmic conditions with retinyl derivatives” (Acucela, Inc., priority 2004, dated 2013).
